Experimental data published in patent US20080167330A1, “Carbamoylsulphoximides as protein kinase inhibitors” (priority 2006, published 2008).

Experiments:
[1] = biological target: T1, human Aurora-C (Homo sapiens, UniProt Q9UQB9); assay: Aurora-C kinase assay (HTRF); format: biochemical; details: 10 μM ATP
T1 construct: GST; made in house; host or cells: transiently transfected HEK293 cells
T1 sequence (Q9UQB9 1-309): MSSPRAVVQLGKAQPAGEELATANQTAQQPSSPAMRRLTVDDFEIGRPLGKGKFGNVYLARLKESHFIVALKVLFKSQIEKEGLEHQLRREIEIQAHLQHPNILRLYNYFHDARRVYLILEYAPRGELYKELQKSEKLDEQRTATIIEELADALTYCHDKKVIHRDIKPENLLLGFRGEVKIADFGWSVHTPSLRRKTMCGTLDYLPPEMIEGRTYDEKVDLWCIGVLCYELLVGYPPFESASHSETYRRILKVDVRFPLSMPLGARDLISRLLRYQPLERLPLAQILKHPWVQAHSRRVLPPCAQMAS
Procedure: The Aurora-C inhibitory activity of the substances of this invention was measured in the Aurora-C-HTRF assay (HTRF=Homogeneous Time Resolved Fluorescence) described in the following paragraphs.
Recombinant fusion protein of GST and human Aurora-C was expressed in transiently transfected HEK293 cells and purified by affinity chromatography on glutathione-Sepharose. The substrate used for the kinase reaction was the biotinylated peptide biotin-Ttds-FMRLRRLSTKYRT (C terminus in amide form) which can be purchased for example from JERINI Peptide Technologies (Berlin). Aurora-C was incubated in the presence of various concentrations of test substances in 5 μL of assay buffer [25 mM Hepes/NaOH pH 7.4, 0.5 mM MnCl2, 2.0 mM dithiothreitol, 0.1 mM sodium orthovanadate, 10 μM adenosine triphosphate (ATP), […] substrate, 0.01% (v/v) TritonX-100 (Sigma), 0.05% (w/v) bovine serum albumin (BSA), 1% (v/v) dimethyl sulphoxide] at 22° C. for 60 min. The concentration of Aurora-C was adapted to the particular activity of the enzyme and adjusted so that the assay operated in the linear range. Typical concentrations were in the region of 0.3 nM. The reaction was stopped by adding 5 μl of a solution of HTRF detection reagents (0.2 μM streptavidin-XLent and 1.4 nM anti-phospho-(Ser/Thr)-Akt substrate-Eu-cryptate (Cis biointernational, France, product No. 61P02KAE), a Europium-cryptate-labelled phospho-(Ser/Thr)-Akt substrate antibody [product #9611B, Cell Signaling Technology, Danvers, Mass., USA]) in aqueous EDTA solution (40 mM EDTA, 400 mM KF, 0.05% (w/v) bovine serum albumin (BSA) in 25 mM HEPES/NaOH pH 7.0).
The resulting mixture was incubated at 22° C. for 1 h in order to allow formation of a complex of the biotinylated phosphorylated substrate and the detection reagents. The amount of phosphorylated substrate was then estimated by measuring the resonance energy transfer from the anti-phospho-(Ser/Thr)-Akt substrate-Eu cryptate to the streptavidin-XLent. For this purpose, the fluorescence emissions at 620 nm and 665 nm after excitation at 350 nm were measured in an HTRF measuring instrument, e.g. a Rubystar (BMG Labtechnologies, Offenburg, Germany) or a Viewlux (Perkin-Elmer). The ratio of the emissions at 665 nm and at 622 nm was taken as a measure of the amount of phosphorylated substrate. The data were normalized (enzymic reaction without inhibitor=0% inhibition, all other assay components but no enzyme=100% inhibition) and IC50 values were calculated with a 4-parameter fit using an inhouse software.

[2] = biological target: T2, CDK1/CycB (Homo sapiens, UniProt P06493); assay: CDK1/CycB kinase assay; format: biochemical; details: 0.5 μM ATP
T2 construct: GST; purchased ProQinase GmbH, Freiburg; host or cells: baculovirus-infected insect cells (Sf9)
Procedure: Recombinant CDK1- and CycB-GST fusion proteins, purified from baculovirus-infected insect cells (Sf9), were purchased from ProQinase GmbH, Freiburg. The histone IIIS used as kinase substrate can be purchased from Sigma.
CDK1/CycB (5 ng/μL) was incubated in the presence of various concentrations of test substances (0 μM, and within the range 0.01-100 μM) in 40 μL of assay buffer [50 mM Tris/HCl pH 8.0, 10 mM MgCl2, 0.1 mM Na ortho-vanadate, 1.0 mM dithiothreitol, 0.025% PEG 20000, 0.5 μM ATP, 10 μM histone IIIS, 0.2 μCi/measurement point ^33P-gamma ATP, 0.05% NP40, 1.25% dimethyl sulphoxide] at 22° C. for 10 min. The reaction was stopped by adding EDTA solution (250 mM, pH 8.0, 15 μl/measurement point). 15 μl of each reaction mixture were loaded onto P30 filter strips (from Wallac), and non-incorporated ^33P-ATP was removed by washing the filter strips three times in 0.5% strength phosphoric acid for 10 min each time. After the filter strips had been dried at 70° C. for 1 hour, the filter strips were covered with scintillator strips (MeltiLex™ A, from Wallac) and baked at 90° C. for 1 hour. The amount of incorporated ^33P (substrate phosphorylation) was determined by scintillation measurement in a gamma radiation counter (Wallac).
The measured data were normalized to 0% inhibition (enzyme reaction without inhibitor) and 100% inhibition (all assay components except enzyme). The IC50 values were determined by means of a 4-parameter fit using the company's own software.

[3] = system: human MCF7 breast tumour cells; assay: MCF7 proliferation assay; format: cell-based; details: MCF7, 96 h, 4 days incubation, crystal violet staining
Procedure: Cultivated human MCF7 breast tumour cells (ATCC HTB-22) were plated out in a density of 5000 cells/measurement point in 200 μl of growth medium (RPMI1640, 10% foetal calf serum, 2 mU/mL insulin, 0.1 nM oestradiol) in a 96-well multititre plate. After 24 hours, the cells from a plate (zero plate) were stained with crystal violet (see below), while the medium in the other plates was replaced by fresh culture medium (200 μl) to which the test substances had been added in various concentrations (0 μM, and in the range 0.01-30 μM; the final concentration of the solvent dimethyl sulphoxide was 0.5%). The cells were incubated in the presence of the test substances for 4 days. The cell proliferation was determined by staining the cells with crystal violet: the cells were fixed by adding 20 μl/measurement point of an 11% strength glutaraldehyde solution at room temperature for 15 min. After the fixed cells had been washed three times with water, the plates were dried at room temperature. The cells were stained by adding 100 μl/measurement point of a 0.1% strength crystal violet solution (pH adjusted to pH 3 by adding acetic acid). After the stained cells had been washed three times with water, the plates were dried at room temperature. The dye was dissolved by adding 100 μl/measurement point of a 10% strength acetic acid solution, and the extinction was determined by photometry at a wavelength of 595 nm. The percentage change in cell growth was calculated by normalizing the measurements to the extinctions of the zero point plate (=0%) and the extinction of the untreated (0 μM) cells (=100%). The IC50 values were determined by means of a 4-parameter fit using the company's own software.

T2 sequence (P06493 whole entry): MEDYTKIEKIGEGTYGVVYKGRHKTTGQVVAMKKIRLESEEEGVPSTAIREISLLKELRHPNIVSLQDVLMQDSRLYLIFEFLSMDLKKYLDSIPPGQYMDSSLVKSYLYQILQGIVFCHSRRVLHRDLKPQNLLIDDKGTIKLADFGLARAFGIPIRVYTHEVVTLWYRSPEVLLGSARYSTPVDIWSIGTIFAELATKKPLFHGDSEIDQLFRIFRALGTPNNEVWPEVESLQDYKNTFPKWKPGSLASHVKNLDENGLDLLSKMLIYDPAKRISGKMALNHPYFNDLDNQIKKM
T2 sequence (P14635 whole entry partner): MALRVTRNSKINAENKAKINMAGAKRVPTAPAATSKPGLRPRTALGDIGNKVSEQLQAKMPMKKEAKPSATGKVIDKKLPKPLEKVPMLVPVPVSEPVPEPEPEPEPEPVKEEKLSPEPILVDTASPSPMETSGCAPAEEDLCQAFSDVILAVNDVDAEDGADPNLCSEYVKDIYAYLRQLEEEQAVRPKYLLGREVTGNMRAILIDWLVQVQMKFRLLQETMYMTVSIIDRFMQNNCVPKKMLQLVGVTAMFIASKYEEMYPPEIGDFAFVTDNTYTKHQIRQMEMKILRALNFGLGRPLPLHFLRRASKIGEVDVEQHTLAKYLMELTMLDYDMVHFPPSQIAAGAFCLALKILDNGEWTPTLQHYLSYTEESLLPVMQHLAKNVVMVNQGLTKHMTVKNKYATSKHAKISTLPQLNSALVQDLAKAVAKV

IC50 [1] [nM] | IC50 [2] [nM] | IC50 [3] [nM] | SMILES
410 | 26 | 650 | COc1ccc(Nc2ncc(Br)c(N[C@H](C)[C@@H](C)O)n2)cc1NC(=O)N=S(C)(C)=O [Example 10, N-({5-[(5-Bromo-4-{[(1R,2R)-2-hydroxy-1-methylpropyl]amino}pyrimidin-2-yl)amino]-2-methoxyphenyl}carbamoyl)-S,S-dimethylsulphoximide]
740 | 42 | 250 | C[C@@H](Nc1nc(Nc2ccc(C(=O)N=S(C)(C)=O)cc2)ncc1Br)C(C)(C)O [Example 19, N-{4-[(5-Bromo-4-{[(R)-2-hydroxy-1,2-dimethylpropyl]amino}pyrimidin-2-yl)amino]benzoyl}S,S-dimethylsulphoximide]
2000 | 10 | 380 | C[C@@H](O)[C@@H](C)Nc1nc(Nc2cccc(C(=O)N=S(C)(C)=O)c2)ncc1Br [Example 17, N-{3-[(5-Bromo-4-{[(1R,2R)-2-hydroxy-1-methylpropyl]amino}pyrimidin-2-yl)amino]benzoyl}-S,S-dimethylsulphoximide]
160 | 24 | 400 | C[C@@H](Nc1nc(Nc2cccc(NC(=O)N=S(C)(C)=O)c2)ncc1Br)C(C)(C)O [Example 1, N-({3-[(5-Bromo-4-{[(R)-2-hydroxy-1,2-dimethylpropyl]amino}pyrimidin-2-yl)amino]phenyl}carbamoyl)-S,S-dimethylsulphoximide]
420 | 5 | 140 | C[C@@H](O)[C@@H](C)Oc1nc(Nc2ccc(NC(=O)N=S(C)(C)=O)cc2)ncc1Br [Example 4, N-({4-[(5-Bromo-4-{[(1R,2R)-2-hydroxy-1-methylpropyl]oxy}pyrimidin-2-yl)amino]phenyl}carbamoyl)-S,S-dimethylsulphoximide]
73 | 7 | 150 | C[C@@H](O)[C@@H](C)Oc1nc(Nc2cccc(NC(=O)N=S(C)(C)=O)c2)ncc1Br [Example 6, N-({3-[(5-Bromo-4-{[(1R,2R)-2-hydroxy-1-methylpropyl]oxy}pyrimidin-2-yl)amino]phenyl}carbamoyl)-S,S-dimethylsulphoximide]
370 | 10 | 500 | C[C@@H](O)[C@@H](C)Nc1nc(Nc2ccc(F)c(NC(=O)N=S(C)(C)=O)c2)ncc1Br [Example 7, N-({5-[(5-Bromo-4-{[(1R,2R)-2-hydroxy-1-methylpropyl]amino}pyrimidin-2-yl)amino]-2-fluorophenyl}carbamoyl)-S,S-dimethylsulphoximide]
810 | 21 | 700 | Cc1ccc(Nc2ncc(Br)c(N[C@H](C)[C@@H](C)O)n2)cc1NC(=O)N=S(C)(C)=O [Example 8, N-({5-[(5-Bromo-4-{[(1R,2R)-2-hydroxy-1-methylpropyl]amino}pyrimidin-2-yl)amino]-2-methylphenyl}carbamoyl)-S,S-dimethylsulphoximide]
430 | 46 | 990 | COc1cc(Nc2ncc(Br)c(N[C@H](C)[C@@H](C)O)n2)ccc1NC(=O)N=S(C)(C)=O [Example 11, N-({4-[(5-Bromo-4{[(1R,2R)-2-hydroxy-1-methylpropyl]amino}pyrimidin-2-yl)amino]-2-methoxyphenyl}carbamoyl)-S,S-dimethylsulphoximide]
1300 | 18 | 860 | C[C@@H](O)[C@@H](C)Nc1nc(Nc2ccc(Cl)c(NC(=O)N=S(C)(C)=O)c2)ncc1Br [Example 12, N-({5-[(5-Bromo-4-{[(1R,2R)-2-hydroxy-1-methylpropyl]amino}pyrimidin-2-yl)amino]-2-chlorophenyl}carbamoyl)-S,S-dimethylsulphoximide]
400 | 140 | 2100 | CS(C)(=O)=NC(=O)Nc1ccc(Nc2ncc(Br)c(Nc3ccc4[nH]cnc4c3)n2)cc1 [Example 16, N-[(4-{[4-(1H-Benzimidazol-5-ylamino)-5-bromopyrimidin-2-yl]amino}phenyl)-carbamoyl]-S,S-dimethylsulphoximide]
150 | 15 | 530 | C[C@@H](O)[C@@H](C)Nc1nc(Nc2ccc(NC(=O)N=S(C)(C)=O)cc2)ncc1C(F)(F)F [Example 15]
310 | 17 | 310 | C[C@@H](O)[C@@H](C)Oc1nc(Nc2ccc(C(=O)N=S(C)(C)=O)cc2)ncc1Br [Example 20, N-{4-[(5-Bromo-4-{[(1R,2R)-2-hydroxy-1-methylpropyl]oxy}pyrimidin-2-yl)amino]benzoyl}-S,S-dimethylsulphoximide]
280 | 7 | 160 | C[C@@H](O)[C@@H](C)Nc1nc(Nc2ccc(NC(=O)N=S(C)(C)=O)cc2)ncc1Br [Example 3, N-({4-[(5-Bromo-4-{[(1R,2R)-2-hydroxy-1-methylpropyl]amino}pyrimidin-2-yl)amino]phenyl}carbamoyl)-S,S-dimethylsulphoximide]
280 | 18 | 140 | C[C@@H](O)[C@@H](C)Nc1nc(Nc2ccc(C(=O)N=S(C)(C)=O)cc2)ncc1Br [Example 18, N-{4-[(5-Bromo-4-{[(1R,2R)-2-hydroxy-1-methylpropyl]amino}pyrimidin-2-yl)amino]benzoyl}-S,S-dimethylsulphoximide]
